Measured values from PMC7982320 (Pharmacology Research & Perspectives, 2021).
Entries after “also recorded” stand apart in the source; their conditions may differ.

Columns and labels:
CYP1A2 = experiment: in vitro; format: in vitro ADME, human; conditions: 48 h
human OAT3 = target: T1, human OAT3 (Homo sapiens, UniProt Q8TCC7); experiment: Transporter inhibition, uptake assay; format: in vitro ADME
T1 sequence (Q8TCC7 1-542): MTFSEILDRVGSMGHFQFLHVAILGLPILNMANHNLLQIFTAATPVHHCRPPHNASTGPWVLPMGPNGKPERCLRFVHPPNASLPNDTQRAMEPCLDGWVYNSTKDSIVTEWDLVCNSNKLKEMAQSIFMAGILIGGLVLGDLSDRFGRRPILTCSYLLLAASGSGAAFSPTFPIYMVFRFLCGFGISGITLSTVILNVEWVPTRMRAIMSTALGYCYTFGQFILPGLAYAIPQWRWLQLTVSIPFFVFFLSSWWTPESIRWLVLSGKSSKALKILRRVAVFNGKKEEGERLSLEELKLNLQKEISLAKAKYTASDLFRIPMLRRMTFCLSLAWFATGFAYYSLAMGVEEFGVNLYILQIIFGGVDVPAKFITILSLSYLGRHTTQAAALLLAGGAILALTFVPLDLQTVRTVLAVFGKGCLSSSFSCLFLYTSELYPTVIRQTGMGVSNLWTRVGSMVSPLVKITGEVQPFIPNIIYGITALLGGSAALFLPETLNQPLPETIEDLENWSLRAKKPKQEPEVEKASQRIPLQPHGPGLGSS

CYP2B6 = CYP2B6 (Homo sapiens, UniProt P20813); format: in vitro ADME; conditions: read-out: IC50, No preincubation; CYP2B6, pooled HLMs, n = 3
Chain of CYP2B6 (P20813 whole entry): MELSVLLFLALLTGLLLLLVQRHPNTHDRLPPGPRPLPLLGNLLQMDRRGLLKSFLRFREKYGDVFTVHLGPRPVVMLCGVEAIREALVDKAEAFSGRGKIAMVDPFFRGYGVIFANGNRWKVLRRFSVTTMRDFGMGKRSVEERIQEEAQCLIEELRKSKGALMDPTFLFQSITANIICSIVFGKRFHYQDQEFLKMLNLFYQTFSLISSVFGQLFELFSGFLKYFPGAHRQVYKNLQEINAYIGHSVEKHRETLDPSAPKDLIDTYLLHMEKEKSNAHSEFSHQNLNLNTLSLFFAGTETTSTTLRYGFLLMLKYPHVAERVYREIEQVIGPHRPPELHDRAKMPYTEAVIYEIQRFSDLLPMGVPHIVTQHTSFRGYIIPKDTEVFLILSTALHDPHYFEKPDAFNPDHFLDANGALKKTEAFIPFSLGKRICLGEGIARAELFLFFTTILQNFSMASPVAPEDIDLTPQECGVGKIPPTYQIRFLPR

CC1=N[C@]2(C(=O)CO)[C@@H](C[C@H]3[C@@H]4C[C@@H](O)C5=CC(=O)C=C[C@]5(C)[C@H]4[C@@H](O)C[C@@]32C)O1 [6β‐OH‐21‐desDFZ, 6β‐Hydroxy‐21‐desacetyl deflazacort]
CYP1A2 enzyme activity fold induction (CYP1A2; donor one, 0.002 µM): 0.783 fold | CYP1A2 mRNA fold induction (CYP1A2; donor one, 0.002 µM): 0.657 fold | CYP1A2 enzyme activity fold induction (CYP1A2; donor one, 0.01 µM): 0.671 fold | CYP1A2 mRNA fold induction (CYP1A2; donor one, 0.01 µM): 0.735 fold | CYP1A2 enzyme activity fold induction (CYP1A2; donor one, 0.05 µM): 0.649 fold | CYP1A2 mRNA fold induction (CYP1A2; donor one, 0.05 µM): 0.735 fold | CYP1A2 enzyme activity fold induction (CYP1A2; donor one, 0.25 µM): 0.753 fold | CYP1A2 mRNA fold induction (CYP1A2; donor one, 0.25 µM): 0.667 fold | CYP1A2 enzyme activity fold induction (CYP1A2; donor one, 5 µM): 0.770 fold | CYP1A2 mRNA fold induction (CYP1A2; donor one, 5 µM): 0.628 fold | CYP1A2 enzyme activity fold induction (CYP1A2; donor one, 10 µM): 0.772 fold | CYP1A2 mRNA fold induction (CYP1A2; donor one, 10 µM): 0.619 fold | CYP1A2 enzyme activity fold induction (CYP1A2; donor one, 20 µM): 0.699 fold | CYP1A2 mRNA fold induction (CYP1A2; donor one, 20 µM): 0.741 fold | CYP1A2 enzyme activity fold induction (CYP1A2; donor three, 0.002 µM): 1.01 fold | CYP1A2 mRNA fold induction (CYP1A2; donor three, 0.002 µM): 0.665 fold | CYP1A2 enzyme activity fold induction (CYP1A2; donor three, 0.01 µM): 0.892 fold | CYP1A2 mRNA fold induction (CYP1A2; donor three, 0.01 µM): 0.744 fold | CYP1A2 enzyme activity fold induction (CYP1A2; donor three, 0.05 µM): 0.812 fold | CYP1A2 mRNA fold induction (CYP1A2; donor three, 0.05 µM): 0.701 fold | CYP1A2 enzyme activity fold induction (CYP1A2; donor three, 0.25 µM): 0.747 fold | CYP1A2 mRNA fold induction (CYP1A2; donor three, 0.25 µM): 0.610 fold | CYP1A2 enzyme activity fold induction (CYP1A2; donor three, 5 µM): 0.870 fold | CYP1A2 mRNA fold induction (CYP1A2; donor three, 5 µM): 0.635 fold | CYP1A2 enzyme activity fold induction (CYP1A2; donor three, 10 µM): 0.954 fold | CYP1A2 mRNA fold induction (CYP1A2; donor three, 10 µM): 0.647 fold | CYP1A2 enzyme activity fold induction (CYP1A2; donor three, 20 µM): 0.955 fold | CYP1A2 mRNA fold induction (CYP1A2; donor three, 20 µM): 0.723 fold | CYP1A2 enzyme activity fold induction (CYP1A2; donor two, 0.002 µM): 0.913 fold | CYP1A2 mRNA fold induction (CYP1A2; donor two, 0.002 µM): 0.978 fold | CYP1A2 enzyme activity fold induction (CYP1A2; donor two, 0.01 µM): 0.880 fold | CYP1A2 mRNA fold induction (CYP1A2; donor two, 0.01 µM): 0.871 fold | CYP1A2 enzyme activity fold induction (CYP1A2; donor two, 0.05 µM): 0.838 fold | CYP1A2 mRNA fold induction (CYP1A2; donor two, 0.05 µM): 0.928 fold | CYP1A2 enzyme activity fold induction (CYP1A2; donor two, 0.25 µM): 0.832 fold | CYP1A2 mRNA fold induction (CYP1A2; donor two, 0.25 µM): 0.979 fold | CYP1A2 enzyme activity fold induction (CYP1A2; donor two, 5 µM): 1.18 fold | CYP1A2 mRNA fold induction (CYP1A2; donor two, 5 µM): 0.786 fold | CYP1A2 enzyme activity fold induction (CYP1A2; donor two, 10 µM): 1.07 fold | CYP1A2 mRNA fold induction (CYP1A2; donor two, 10 µM): 0.840 fold | CYP1A2 enzyme activity fold induction (CYP1A2; donor two, 20 µM): 1.18 fold | CYP1A2 mRNA fold induction (CYP1A2; donor two, 20 µM): 0.886 fold | inhibitory interaction with transporter (human OAT3; OAT3, up to 50 µM): did not show interaction; also recorded: no inhibitory interaction | Maximum inhibition at 50 µM (human OAT3; OAT3 UPT, n = 3): <20 % of control | IC50 (CYP2B6): > 50 µM
